Results published in patent US6756359B2, “C12 modified erythromycin macrolides and ketolides having antibacterial activity” (Chiron Corporation, priority 2001, dated 2004).
≈ marks a conversion by molar mass, not a printed value.

What was measured:
Experiment in all cases: Antibacterial activity in vitro, MIC by broth microdilution
H. influenzae Hain_49247 = assay type: cell-based, Haemophilus influenzae; details: Table 5, Strain ID M: H. influenzae Hain_49247; unit assumed
How it was run: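 Visible-growth inhibition defined the MIC, obtained by NCCLS broth microdilution at 35° C. over 18-24 hours with a final inoculum of 3×10^5–7×10^5 CFU/mL.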

[1] = test system: S. pneumoniae Stpn_Mef S 3427; assay type: cell-based, Streptococcus pneumoniae; details: Table 5, Strain ID L: S. pneumoniae Stpn_Mef S 3427; unit assumed
How it was run: (§1)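 NCCLS microdilution; CAMHB; 2-fold series; 3×10^5–7×10^5 CFU/mL; 35° C., 18-24 h, ambient air except S. pneumoniae (5-10% CO2, lysed horse blood 2-5%). Endpoint: no visible growth.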

[2] = test system: S. pneumoniae Stpn_Erm 6849; assay type: cell-based, Streptococcus pneumoniae; details: Table 5, Strain ID I: S. pneumoniae Stpn_Erm 6849
How it was run: as §1

S. pneumoniae Stpn_49619 = assay type: cell-based, Streptococcus pneumoniae; details: Table 5, Strain ID F: S. pneumoniae Stpn_49619
How it was run: as §1

[3] = test system: S. pneumoniae Stpn_297-749 Pen R; assay type: cell-based, Streptococcus pneumoniae; details: Table 5, Strain ID G: S. pneumoniae Stpn_297-749
How it was run: as §1

[4] = test system: S. pneumoniae Stpn_280-962 Pen S; assay type: cell-based, Streptococcus pneumoniae; details: Table 5, Strain ID H: S. pneumoniae Stpn_280-962
How it was run: as §1

[5] = test system: S. pneumoniae Stpn_Mef 5654; assay type: cell-based, Streptococcus pneumoniae; details: Table 5, Strain ID K: S. pneumoniae Stpn_Mef 5654; unit assumed
How it was run: as §1

[6] = test system: S. pneumoniae Stpn_Erm S 4297; assay type: cell-based, Streptococcus pneumoniae; details: Table 5, Strain ID J: S. pneumoniae Stpn_Erm S 4297
How it was run: as §1

[7] = test system: S. epidermidis Step_14990; assay type: cell-based; details: Table 5, Strain ID B: S. epidermidis Step_14990; unit assumed
How it was run: as §1

E. faecalis Enfa_29212 = assay type: cell-based; details: Table 5, Strain ID D: E. faecalis Enfa_29212; unit assumed
How it was run: as §1

S. pyogenes Stpy_8668 = assay type: cell-based; details: Table 5, Strain ID E: S. pyogenes Stpy_8668
How it was run: as §1

S. aureus Stau_29213 = assay type: cell-based; details: Table 5, Strain ID A: S. aureus Stau_29213; unit assumed
How it was run: as §1

[8] = test system: S. epidermidis Step_f50654 Pen S; assay type: cell-based; details: Table 5, Strain ID C: S. epidermidis Step_f50654; unit assumed
How it was run: as §1

MIC (H. influenzae Hain_49247)	MIC [1]	MIC [3]	MIC [4]	MIC [5]	MIC [7]	MIC (E. faecalis Enfa_29212)	MIC (S. pyogenes Stpy_8668)	MIC (S. aureus Stau_29213)	MIC [8]	MIC ([2]; unit assumed)	MIC (S. pneumoniae Stpn_49619)	MIC [6]	SMILES	MIC [2]	MIC (S. pneumoniae Stpn_49619; unit assumed)	MIC ([6]; unit assumed)	MIC (S. pyogenes Stpy_8668; unit assumed)	MIC ([3]; unit assumed)	MIC ([4]; unit assumed)
0.2 µg/mL (≈ 0.239 µM)	0.78 µg/mL (≈ 0.931 µM)	≦0.05	≦0.05	0.78 µg/mL (≈ 0.931 µM)	0.78 µg/mL (≈ 0.931 µM)	0.2 µg/mL (≈ 0.239 µM)	–	0.78 µg/mL (≈ 0.931 µM)	0.78 µg/mL (≈ 0.931 µM)	–	–	–	CC[C@H]1OC(=O)[C@H](C)C(=O)[C@H](C)[C@@H](OC2O[C@H](C)C[C@H](N(C)C)[C@H]2O)[C@@](C)(OC)C[C@@H](C)C(=O)[C@H](C)[C@H]2N(CCCOc3cccc(-c4cccnc4)c3)C(=O)O[C@]12CC (stereo partly drawn) [Example 35, (3aS,4R,7R,9R,10R,11S,13R,15R,15aR)-3a,4-diethyl-11-methoxy-7,9,11,13,15-pentamethyl-2,6,8,14-tetraoxo-1-[3-(3-pyridin-3-ylphenoxy)propyl]-tetradecahydro-2H-oxacyclotetradecino[4,3-d][1,3]oxazol-10-yl 3,4,6-trideoxy-3-(dimethylamino)-D-xylo-hexopyranoside]	≦0.05	6.25 µg/mL (≈ 7.46 µM)	3.13 µg/mL (≈ 3.73 µM)	0.2 µg/mL (≈ 0.239 µM)	–	–
6.25 µg/mL (≈ 7.55 µM)	0.2 µg/mL (≈ 0.242 µM)	≦0.05	≦0.05	1.56 µg/mL (≈ 1.88 µM)	0.2 µg/mL (≈ 0.242 µM)	0.1 µg/mL (≈ 0.121 µM)	≦0.05	0.4 µg/mL (≈ 0.483 µM)	0.2 µg/mL (≈ 0.242 µM)	0.4 µg/mL (≈ 0.483 µM)	≦0.05	–	CC[C@H]1OC(=O)[C@H](C)C(=O)[C@H](C)[C@@H](OC2O[C@H](C)C[C@H](N(C)C)[C@H]2O)[C@@](C)(OC)C[C@@H](C)C(=O)[C@H](C)[C@H]2N(CCCC(C)(C)n3cnc4ncccc43)C(=O)O[C@]12CC (stereo partly drawn) [Example 37, (3aS,4R,7R,9R,10R,11S,13R,15R,15aR)-3a,4-diethyl-1-[4-(1H-imidazo[4,5-b]pyridin-1-yl)-4-methylpentyl]-11-methoxy-7,9,11,13,15-pentamethyl-2,6,8,14-tetraoxotetradecahydro-2H-oxacyclotetradecino[4,3-d][1,3]oxazol-10-yl 3,4,6-trideoxy-3-(dimethylamino)-D-xylo-hexopyranoside]	–	–	0.1 µg/mL (≈ 0.121 µM)	–	–	–
6.25 µg/mL (≈ 7.55 µM)	0.1 µg/mL (≈ 0.121 µM)	≦0.05	≦0.05	0.78 µg/mL (≈ 0.942 µM)	0.2 µg/mL (≈ 0.242 µM)	0.1 µg/mL (≈ 0.121 µM)	≦0.05	0.2 µg/mL (≈ 0.242 µM)	0.2 µg/mL (≈ 0.242 µM)	0.4 µg/mL (≈ 0.483 µM)	≦0.05	–	CC[C@H]1OC(=O)[C@H](C)C(=O)[C@H](C)[C@@H](OC2O[C@H](C)C[C@H](N(C)C)[C@H]2O)[C@@](C)(OC)C[C@@H](C)C(=O)[C@H](C)[C@H]2N(CCCC(C)(C)n3cnc4cccnc43)C(=O)O[C@]12CC (stereo partly drawn) [Example 38, (3aS,4R,7R,9R,10R,11S,13R,15R,15aR)-3a,4-diethyl-1-[4-(3H-imidazol[4,5-b]pyridin-3-yl)-4-methylpentyl]-11-methoxy-7,9,11,13,15-pentamethyl-2,6,8,14-tetraoxotetradecahydro-2H-oxacyclotetradecino[4,3-d][1,3]oxazol-10-yl 3,4,6-trideoxy-3-(dimethylamino)-D-xylo-hexopyranoside]	–	–	0.1 µg/mL (≈ 0.121 µM)	–	–	–
6.25 µg/mL (≈ 7.39 µM)	0.2 µg/mL (≈ 0.236 µM)	≦0.05	≦0.05	0.78 µg/mL (≈ 0.922 µM)	0.2 µg/mL (≈ 0.236 µM)	0.1 µg/mL (≈ 0.118 µM)	≦0.05	0.2 µg/mL (≈ 0.236 µM)	0.2 µg/mL (≈ 0.236 µM)	0.2 µg/mL (≈ 0.236 µM)	≦0.05	≦0.05	CC[C@H]1OC(=O)[C@@](C)(F)C(=O)[C@H](C)[C@@H](O[C@@H]2O[C@H](C)C[C@H](N(C)C)[C@H]2O)[C@@](C)(OC)C[C@@H](C)C(=O)[C@H](C)[C@H]2N(CCCC(C)(C)n3cnc4cccnc43)C(=O)O[C@]12CC [Example 40, (3aS,4R,7S,9R,10R,11S,13R,15R,15aR)-3a,4-diethyl-7-fluoro-1-[4-(3H-imidazo[4,5-b]pyridin-3-yl)-4-methylpentyl]-11-methoxy-7,9,11,13,15-pentamethyl-2,6,8,14-tetraoxotetradecahydro-2H-oxacyclotetradecino[4,3-d][1,3]oxazol-10-yl 3,4,6-trideoxy-3-(dimethylamino)-D-xylo-hexopyranoside]	–	–	–	–	–	–
3.13 µg/mL (≈ 3.8 µM)	0.1 µg/mL (≈ 0.121 µM)	≦0.05	≦0.05	0.78 µg/mL (≈ 0.947 µM)	0.2 µg/mL (≈ 0.243 µM)	0.1 µg/mL (≈ 0.121 µM)	≦0.05	0.2 µg/mL (≈ 0.243 µM)	0.2 µg/mL (≈ 0.243 µM)	0.4 µg/mL (≈ 0.485 µM)	≦0.05	≦0.05	C=C[C@]12OC(=O)N(CCCCn3cnc(-c4cccnc4)c3)[C@@H]1[C@@H](C)C(=O)[C@H](C)C[C@@](C)(OC)[C@H](OC1O[C@H](C)C[C@H](N(C)C)[C@H]1O)[C@@H](C)C(=O)[C@@H](C)C(=O)O[C@@H]2CC (stereo partly drawn) [Example 48, (3aS,4R,7R,9R,10R,11R,13R,15R,15aR)-4-ethyl-11-methoxy-7,9,11,13,15-pentamethyl-2,6,8,14-tetraoxo-1-[4-(4-pyridin-3-yl-1H-imidazol-1-yl)butyl]-3a-vinyltetradecahydro-2H-oxacyclotetradecino[4,3-d][1,3]oxazol-10-yl 3,4,6-trideoxy-3-(dimethylamino)-D-xylo-hexopyranoside]	–	–	–	–	–	–

Second part, the molecule before the results:

SMILES	MIC (H. influenzae Hain_49247)	MIC [1]	MIC [3]	MIC [4]	MIC [5]	MIC [7]	MIC (E. faecalis Enfa_29212)	MIC (S. pyogenes Stpy_8668)	MIC (S. aureus Stau_29213)	MIC [8]	MIC ([2]; unit assumed)	MIC (S. pneumoniae Stpn_49619)	MIC [6]	MIC [2]	MIC (S. pneumoniae Stpn_49619; unit assumed)	MIC ([6]; unit assumed)	MIC (S. pyogenes Stpy_8668; unit assumed)	MIC ([3]; unit assumed)	MIC ([4]; unit assumed)
CC[C@H]1OC(=O)[C@H](C)C(=O)[C@H](C)[C@@H](OC2O[C@H](C)C[C@H](N(C)C)[C@H]2O)[C@@](C)(OC)C[C@@H](C)C(=O)[C@H](C)[C@H]2N(CCCCn3cnc(-c4ccc(F)nc4)c3)C(=O)O[C@]12CC (stereo partly drawn) [Example 33, (3aS,4R,7R,9R,10R,11S,13R,15R,15aR)-3a,4-diethyl-1-{4-[4-(6-fluoropyridin-3-yl)-1H-imidazol-1-yl]butyl}-11-methoxy-7,9,11,13,15-pentamethyl-2,6,8,14-tetraoxotetradecahydro-2H-oxacyclotetradecino[4,3-d][1,3]oxazol-10-yl 3,4,6-trideoxy-3-(dimethylamino)-D-xylo-hexopyranoside]	0.1 µg/mL (≈ 0.118 µM)	0.4 µg/mL (≈ 0.474 µM)	≦0.05	≦0.05	0.1 µg/mL (≈ 0.118 µM)	0.2 µg/mL (≈ 0.237 µM)	0.1 µg/mL (≈ 0.118 µM)	≦0.05	0.4 µg/mL (≈ 0.474 µM)	0.2 µg/mL (≈ 0.237 µM)	–	–	–	≦0.05	3.13 µg/mL (≈ 3.71 µM)	0.4 µg/mL (≈ 0.474 µM)	–	–	–
CC[C@H]1OC(=O)[C@H](C)C(=O)[C@H](C)[C@@H](OC2O[C@H](C)C[C@H](N(C)C)[C@H]2O)[C@@](C)(OC)C[C@@H](C)C(=O)[C@H](C)[C@H]2N(CCCCc3ncc(-c4cccc(N)c4)s3)C(=O)O[C@]12CC (stereo partly drawn) [Example 34, (3aS,4R,7R,9R,10R,11S,13R,15R,15aR)-1-{4-[5-(3-aminophenyl)-1,3-thiazol-2-yl]butyl}-3a,4-diethyl-11-methoxy-7,9,11,13,15-pentamethyl-2,6,8,14-tetraoxotetradecahydro-2H-oxacyclotetradecino[4,3-d][1,3]oxazol-10-yl 3,4,6-trideoxy-3-(dimethylamino)-D-xylo-hexopyranoside]	0.1 µg/mL (≈ 0.117 µM)	0.4 µg/mL (≈ 0.467 µM)	≦0.05	≦0.05	0.2 µg/mL (≈ 0.233 µM)	0.2 µg/mL (≈ 0.233 µM)	0.1 µg/mL (≈ 0.117 µM)	≦0.05	0.4 µg/mL (≈ 0.467 µM)	0.2 µg/mL (≈ 0.233 µM)	–	–	–	≦0.05	3.13 µg/mL (≈ 3.65 µM)	12.5 µg/mL (≈ 14.6 µM)	–	–	–
CC[C@H]1OC(=O)[C@H](C)C(=O)[C@H](C)[C@@H](OC2O[C@H](C)C[C@H](N(C)C)[C@H]2O)[C@@](C)(OC)C[C@@H](C)C(=O)[C@H](C)[C@H]2N(CCCOc3ccc(-c4cccnc4)cc3)C(=O)O[C@]12CC (stereo partly drawn) [Example 36, (3aS,4R,7R,9R,10R,11S,13R,15R,15aR)-3a,4-diethyl-11-methoxy-7,9,11,13,15-pentamethyl-2,6,8,14-tetraoxo-1-[3-(4-pyridin-3-ylphenoxy)propyl]-tetradecahydro-2H-oxacyclotetradecino[4,3-d][1,3]oxazol-10-yl 3,4,6-trideoxy-3-(dimethylamino)-D-xylo-hexopyranoside]	0.2 µg/mL (≈ 0.239 µM)	0.78 µg/mL (≈ 0.931 µM)	–	–	12.5 µg/mL (≈ 14.9 µM)	1.56 µg/mL (≈ 1.86 µM)	0.78 µg/mL (≈ 0.931 µM)	–	6.25 µg/mL (≈ 7.46 µM)	0.78 µg/mL (≈ 0.931 µM)	0.1 µg/mL (≈ 0.119 µM)	–	–	–	25 µg/mL (≈ 29.8 µM)	12.5 µg/mL (≈ 14.9 µM)	0.4 µg/mL (≈ 0.477 µM)	0.1 µg/mL (≈ 0.119 µM)	0.1 µg/mL (≈ 0.119 µM)
